Reference: US20240099994A1, “LONG-ACTING INJECTABLE FORMULATIONS OF KETAMINE PAMOATE SALTS” (ALAR PHARMACEUTICAL INC., priority 2019, published 2024)
Structures can show the parent of a compound that is named as a salt. Where two headings read alike, the source gives them in different places.

What was measured:
[1] = Intrinsic dissolution rate, rotating disk method (USP Chapter 1087); type: physicochemical; conditions: for Intrinsic dissolution rate: 50 rpm, average of three samples; for BCS solubility classification: pH 7.4 medium
Method: The intrinsic dissolution rate of the crystal and amorphous forms of ketamine pamoate salts was determined by using the intrinsic dissolution rotating disk method described in Chapter 1087 of the U.S. Pharmacopeia under the conditions of medium pH as 1.2, 4.5, 6.8 or 7.4, medium volume as 900 mL, rotating speed as 50 rpm, medium temperature as 37° C., and detection wavelength as 210 nm. The results were shown in Tables 7 and 8 and FIGS. 27 to 29.

[2] = tested on: DEX-induced depression-like animal model; assay: Forced swimming test (FST) in dexamethasone (DEX)-induced depression-like animal model; type: in vivo, ICR mice; conditions: DEX-treated mice, SC, 120 mg/kg ketamine free-base; for Immobility time on FST: 1 day after administration
Method: (§1) FIG. 43 is a diagram illustrating the protocol of dexamethasone (DEX)-induced depression-like animal model to evaluate the antidepressant effects of ketamine HCl (KET), R, S-ketamine pamoate salt (KEP), S-ketamine pamoate salt (S-KEP), and R-ketamine pamoate salt (R-KEP). ICR mice were intraperitoneally injected with saline or DEX at postnatal day 1 to 3 (P1 to P3) with dose decrement of 0.5 mg/kg, 0.3 mg/kg, and 0.1 mg/kg, respectively. The drugs for each group or saline group were administered subcutaneously at day 35 (P35, i.e., dosing day 0, D0), and the forced swimming test (FST) were conducted every 10 days from dosing day 1 (D1, P36) to P98. Evaluation of sedation behavior was also conducted by sedation rating scale from the time immediately post injection to dosing day 28 after drug administration.
Depression-like animal model induced by dexamethasone (hereinafter abbreviated as DEX) was used to evaluate the antidepressant effects of ketamine HCl (KET), R, S-ketamine pamoate salt (KEP), S-ketamine pamoate salt (S-KEP), and R-ketamine pamoate salt (R-KEP) at equivalent dose (120 mg/kg ketamine free-base). According to literature, depressive-like behaviors were observed on juvenile mice and adult mice which neonatally exposed to DEX. Protocol of this example was shown in FIG. 43 and described in detail below.
Neonatal ICR mice were intraperitoneally injected with saline or DEX on postnatal day 1, 2, and 3 (P1 to P3) at doses of 0.5 mg/kg, 0.3 mg/kg, and 0.1 mg/kg, respectively. The mice received saline were called as Control group, and the mice received DEX were divided into the groups of KET, KEP, S-KEP, R-KEP and Saline (n=10 to 14 mice in each group). The mice of KET, KEP, S-KEP, and R-KEP groups were subcutaneously injected with KET formulation, the formulation AS04 comprising KEP, the formulation AS06 comprising S-KEP, and the formulation AS07 comprising R-KEP at postnatal day 35, respectively. The KET formulation was 20% (w/w) ketamine HCl dissolved in 0.9% saline. The formulations AS04, AS06 and AS07 were prepared in Example 18. Saline group mice were subcutaneously injected with equal volumes of 0.9% saline.
Antidepressant effects were evaluated by forced swimming test (FST), which performed about every 10 days from the first day (P36) to the 63rd day (P98) after drug administration. All groups of mice were trained for swimming before drug administration. During the FST, mice were individually placed into 5 L glass cylinders (height 27 cm, diameter 18 cm) filled with 4 L of water (23±1° C.). The total duration of immobility time during 5 minutes of FST was observed. Results were presented as mean±SEM. Student's t-test was analyzed with the Saline group (DEX-treated mouse group injected with saline) versus the other groups at each time point. *p<0.05, **p<0.01, ***p<0.001, and ****p<0.0001 indicate significant differences compared to the Saline group.

[3] = tested on: ICR mice; assay: Sedation behavior by rodent sedation rating scale; type: in vivo; conditions: SC, 120 mg/kg ketamine free-base; for Sedation behavior (rodent sedation rating scale): immediately post administration to 28 days
Method: as §1
Furthermore, sedation behavior was also evaluated by rodent sedation rating scale (Table 28) immediately post drug administration to 28 days in this study.

[4] = Solubility test (USP guidance) in different pH media
[5] = in water; cited from earlier work
[6] = pH 7.4, 1% polysorbate 20 in medium, 37° C.
[7] = pH 4.5, 1% polysorbate 20 in medium, 37° C.
[8] = pH 6.8, 1% polysorbate 20 in medium, 37° C.

Compound: CN[C@]1(c2ccccc2Cl)CCCCC1=O [S-ketamine pamoate salt (Crystal, ratio 2:1)]
- Intrinsic dissolution rate [1, 6]: 0.027 mg/min/cm^2
- BCS solubility classification [1]: Low
- Antidepressant effects on FST after single injection [2]: rapid-onset antidepressant effects
- Sedation or other ketamine-related psychotomimetic effects and nervous system disorders post administration [3]: would not occur
- Solubility ([4]; pH 1.2 medium, listed as S-ketamine pamoate salt (Ratio 2:1) Crystal): 1240 µg/mL
- Solubility ([4]; pH 4.5 medium, listed as S-ketamine pamoate salt (Ratio 2:1) Crystal): 1610 µg/mL
- Solubility ([4]; pH 6.8 medium, listed as S-ketamine pamoate salt (Ratio 2:1) Crystal): 390 µg/mL
- Solubility ([4]; pH 7.4 medium, listed as S-ketamine pamoate salt (Ratio 2:1) Crystal): 500 µg/mL

Compound: CNC1(c2ccccc2Cl)CCCCC1=O.CNC1(c2ccccc2Cl)CCCCC1=O.O=C(O)c1cc2ccccc2c(Cc2c(O)c(C(=O)O)cc3ccccc23)c1O [R,S-ketamine pamoate salt (Crystal, ratio 2:1)] [R, S-ketamine pamoate salt]
- Intrinsic dissolution rate ([1]; pH 1.2, 37° C.): 0.095 mg/min/cm^2
- Intrinsic dissolution rate [1, 7]: 0.005 mg/min/cm^2
- Intrinsic dissolution rate [1, 8]: 0.011 mg/min/cm^2
- Intrinsic dissolution rate [1, 6]: 0.012 mg/min/cm^2
- Antidepressant effects on FST after single injection [2]: rapid-onset antidepressant effects
- Immobility time on FST [2]: reduced the immobility time
- Sedation or other ketamine-related psychotomimetic effects and nervous system disorders post administration [3]: would not occur
- Sedation behavior (rodent sedation rating scale) [3]: normal behavior
- Solubility ([4]; pH 1.2 medium, listed as R, S-ketamine pamoate salt): 1680 µg/mL
- Solubility ([4]; pH 4.5 medium, listed as R,S-ketamine pamoate salt (Ratio 2:1) Crystal): 1080 µg/mL
- Solubility ([4]; pH 6.8 medium): 160 µg/mL
- Solubility ([4]; pH 7.4 medium, listed as R,S-ketamine pamoate salt (Ratio 2:1) Crystal): 220 µg/mL

Compound: CN[C@]1(c2ccccc2Cl)CCCCC1=O.Cl [S-ketamine HCl, S-ketamine hydrochloride, reference compound]
- Intrinsic dissolution rate [1, 6]: 2.248 mg/min/cm^2
- BCS solubility classification [1]: High

Compound: CN[C@]1(c2ccccc2Cl)CCCCC1=O [S-ketamine pamoate salt (Amorphous, ratio 2:1)]
- Intrinsic dissolution rate [1, 6]: 0.026 mg/min/cm^2
- BCS solubility classification [1]: Low
- Solubility ([4]; pH 1.2 medium, listed as S-ketamine pamoate salt (Ratio 2:1) Amorphous): 1000 µg/mL
- Solubility ([4]; pH 4.5 medium, listed as S-ketamine pamoate salt (Ratio 2:1) Amorphous): 840 µg/mL
- Solubility ([4]; pH 6.8 medium, listed as S-ketamine pamoate salt (Ratio 2:1) Amorphous): 480 µg/mL
- Solubility ([4]; pH 7.4 medium, listed as S-ketamine pamoate salt (Ratio 2:1) Amorphous): 580 µg/mL

Compound: CNC1(c2ccccc2Cl)CCCCC1=O.O=C(O)c1cc2ccccc2c(Cc2c(O)c(C(=O)O)cc3ccccc23)c1O [R- or S-ketamine pamoate salt]
- Solubility ([4]; pH 1.2 medium): 720 µg/mL
- Solubility ([4]; pH 4.5 medium): 450 µg/mL
- Solubility ([4]; pH 6.8 medium): 70 µg/mL
- Solubility ([4]; pH 7.4 medium): 80 µg/mL

Compound: CNC1(c2ccccc2Cl)CCCCC1=O.Cl (stereo not drawn) [R-ketamine HCl, R-ketamine hydrochloride, reference compound]
- Intrinsic dissolution rate [1, 6]: 2.356 mg/min/cm^2
- BCS solubility classification [1]: High

Compound: CN[C@@]1(c2ccccc2Cl)CCCCC1=O [R-ketamine pamoate salt (Amorphous, ratio 2:1)]
- Intrinsic dissolution rate [1, 6]: 0.021 mg/min/cm^2
- BCS solubility classification [1]: Low
- Solubility ([4]; pH 1.2 medium, listed as R-ketamine pamoate salt (Ratio 2:1) Amorphous): 1150 µg/mL
- Solubility ([4]; pH 4.5 medium, listed as R-ketamine pamoate salt (Ratio 2:1) Amorphous): 990 µg/mL
- Solubility ([4]; pH 6.8 medium, listed as R-ketamine pamoate salt (Ratio 2:1) Amorphous): 640 µg/mL
- Solubility ([4]; pH 7.4 medium, listed as R-ketamine pamoate salt (Ratio 2:1) Amorphous): 950 µg/mL

Compound: CN[C@@]1(c2ccccc2Cl)CCCCC1=O [R-ketamine pamoate salt (Crystal, ratio 2:1)]
- Intrinsic dissolution rate [1, 6]: 0.025 mg/min/cm^2
- BCS solubility classification [1]: Low
- Antidepressant effects on FST after single injection [2]: rapid-onset antidepressant effects
- Sedation or other ketamine-related psychotomimetic effects and nervous system disorders post administration [3]: would not occur
- Solubility ([4]; pH 1.2 medium, listed as R-ketamine pamoate salt (Ratio 2:1) Crystal): 1090 µg/mL
- Solubility ([4]; pH 4.5 medium, listed as R-ketamine pamoate salt (Ratio 2:1) Crystal): 1180 µg/mL
- Solubility ([4]; pH 6.8 medium, listed as R-ketamine pamoate salt (Ratio 2:1) Crystal): 400 µg/mL
- Solubility ([4]; pH 7.4 medium, listed as R-ketamine pamoate salt (Ratio 2:1) Crystal): 510 µg/mL

Compound: CNC1(c2ccccc2Cl)CCCCC1=O.CNC1(c2ccccc2Cl)CCCCC1=O.O=C(O)c1cc2ccccc2c(Cc2c(O)c(C(=O)O)cc3ccccc23)c1O [R,S-ketamine pamoate salt (Amorphous, ratio 2:1)] [R, S-ketamine pamoate salt]
- Intrinsic dissolution rate [1, 6]: 0.024 mg/min/cm^2
- BCS solubility classification [1]: Low
- Solubility ([4]; pH 1.2 medium, listed as R,S-ketamine pamoate salt (Ratio 2:1) Amorphous): 1310 µg/mL
- Solubility ([4]; pH 4.5 medium, listed as R,S-ketamine pamoate salt (Ratio 2:1) Amorphous): 870 µg/mL
- Solubility ([4]; pH 6.8 medium): 160 µg/mL
- Solubility ([4]; pH 7.4 medium, listed as R,S-ketamine pamoate salt (Ratio 2:1) Amorphous): 180 µg/mL

Compound: CNC1(c2ccccc2Cl)CCCCC1=O (stereo not drawn) [R,S-ketamine HCl, R, S-ketamine hydrochloride, reference compound]
- Intrinsic dissolution rate ([1]; pH 1.2, 37° C.): 5.329 mg/min/cm^2
- Intrinsic dissolution rate [1, 7]: 3.729 mg/min/cm^2
- Intrinsic dissolution rate [1, 8]: 2.918 mg/min/cm^2
- Intrinsic dissolution rate [1, 6]: 1.740 mg/min/cm^2
- Antidepressant effects on FST after single injection [2]: rapid-onset antidepressant effects
- Immobility time on FST [2]: reduced the immobility time
- Time to full recovery from sedation-related behavior post administration [3]: 2 h
- Sedation behavior (rodent sedation rating scale) [3]: mild sedation-related behavior
- Solubility [5]: > 200000 µg/mL
